How the values were obtained:
SF-539 = type: cell-based; settings: SF-539; 10^−5 molar
MDA-MB-486 = type: cell-based; settings: MDA-MB-486; 10^−5 molar
TK-10 = type: cell-based; settings: TK-10; 10^−5 molar
HT29 = type: cell-based; settings: HT29; 10^−5 molar
SK-OV-3 = type: cell-based; settings: SK-OV-3; 10^−5 molar
CAKI-1 = type: cell-based; settings: CAKI-1; 10^−5 molar
HCT-15 = type: cell-based; settings: HCT-15; 10^−5 molar
SW-620 = type: cell-based; settings: SW-620; 10^−5 molar
UACC-257 = type: cell-based; settings: UACC-257; 10^−5 molar
UO-31 = type: cell-based; settings: UO-31; 10^−5 molar
NCI/ADR-RES = type: cell-based; settings: NCI/ADR-RES; 10^−5 molar
SNB-75 = type: cell-based; settings: SNB-75; 10^−5 molar
MDA-MB-435 = type: cell-based; settings: MDA-MB-435; 10^−5 molar
OVCAR-4 = type: cell-based; settings: OVCAR-4; 10^−5 molar
A549/ATCC = type: cell-based; settings: A549/ATCC; 10^−5 molar
A498 = type: cell-based; settings: A498; 10^−5 molar
KM12 = experiment: cells; type: cell-based; settings: KM12; 10^−5 molar
HS 578T = type: cell-based; settings: HS 578T; 10^−5 molar
SN12C = type: cell-based; settings: SN12C; 10^−5 molar
MOLT-4 = type: cell-based; settings: MOLT-4; 10^−5 molar
IGROV1 = type: cell-based; settings: IGROV1; 10^−5 molar
M14 = type: cell-based; settings: M14; 10^−5 molar
HCC-2998 = type: cell-based; settings: HCC-2998; 10^−5 molar
COLO 205 = type: cell-based; settings: COLO 205; 10^−5 molar
OVCAR-8 = type: cell-based; settings: OVCAR-8; 10^−5 molar
SF-268 = type: cell-based; settings: SF-268; 10^−5 molar
MDA-MB-231/ATCC = type: cell-based; settings: MDA-MB-231/ATCC; 10^−5 molar
SR = type: cell-based; settings: SR; 10^−5 molar
SK-MEL-28 = type: cell-based; settings: SK-MEL-28; 10^−5 molar
SF-295 = type: cell-based; settings: SF-295; 10^−5 molar
NCI-H226 = type: cell-based; settings: NCI-H226; 10^−5 molar
HOP-62 = type: cell-based; settings: HOP-62; 10^−5 molar
SNB-19 = type: cell-based; settings: SNB-19; 10^−5 molar
RPMI-8226 = type: cell-based; settings: RPMI-8226; 10^−5 molar
ACHN = type: cell-based; settings: ACHN; 10^−5 molar
HL-60(TB) = type: cell-based; settings: HL-60(TB); 10^−5 molar
MCF7 = type: cell-based; settings: MCF7; 10^−5 molar
UACC-62 = type: cell-based; settings: UACC-62; 10^−5 molar
HCT-116 = type: cell-based; settings: HCT-116; 10^−5 molar
PC-3 = type: cell-based; settings: PC-3; 10^−5 molar
CCRF-CEM = type: cell-based; settings: CCRF-CEM; 10^−5 molar
OVCAR-3 = type: cell-based; settings: OVCAR-3; 10^−5 molar
NCI-H460 = type: cell-based; settings: NCI-H460; 10^−5 molar
786-0 = type: cell-based; settings: 786-0; 10^−5 molar
NCI-H522 = type: cell-based; settings: NCI-H522; 10^−5 molar
DU-145 = type: cell-based; settings: DU-145; 10^−5 molar
NCI-H23 = type: cell-based; settings: NCI-H23; 10^−5 molar
T-47D = type: cell-based; settings: T-47D; 10^−5 molar
SK-MEL-5 = type: cell-based; settings: SK-MEL-5; 10^−5 molar
OVCAR-5 = type: cell-based; settings: OVCAR-5; 10^−5 molar
K-562 = type: cell-based; settings: K-562; 10^−5 molar
60 cancer cell lines = experiment: NCI 60-cell screen, SRB, whole panel (mean, delta, range); type: cell-based; settings: 10^−5 molar
MALME-3M = type: cell-based; settings: MALME-3M; 10^−5 molar
RXF 393 = type: cell-based; settings: RXF 393; 10^−5 molar
BT-549 = type: cell-based; settings: BT-549; 10^−5 molar

Work on O=c1c2cc(Cl)ccc2sc2c(NC3CCCCC3)nc3ccccc3c12 [Compound N21, 10-Chloro-6-(cyclohexylamino)-12H-thiochromeno[2,3-c]quinolin-12-one] yielded a Growth percent (SF-539) of 91.20%, a melting point of 196 to 197 °C and a Growth percent (MDA-MB-486) of 108.92%. The Growth percent (TK-10) was 127.96%, the Growth percent (HT29) was 105.11% and the Growth percent (SK-OV-3) was 94.54%. It also gave a Growth percent (CAKI-1) of 72.76%, a Growth percent (HCT-15) of 91.71% and a Growth percent (SW-620) of 87.98%. It also gave a Growth percent (UACC-257) of 103.68%, a Growth percent (UO-31) of 72.52% and a Growth percent (NCI/ADR-RES) of 95.91%. The Growth percent (SNB-75) was 81.91%, the Growth percent (MDA-MB-435) was 106.98% and the Growth percent (OVCAR-4) was 72.10%. It also gave a Growth percent (A549/ATCC) of 85.28%, a Growth percent (A498) of 93.00% and a Growth percent (KM12) of 112.90%. For the same compound, the Growth percent (HS 578T) was 94.22%, the Growth percent (SN12C) was 89.12% and the Growth percent (MOLT-4) was 92.42%. The Growth percent (IGROV1) was 83.31%, the Growth percent (M14) was 103.41% and the Growth percent (HCC-2998) was 109.83%. It also gave a Growth percent (COLO 205) of 103.96%, a Growth percent (OVCAR-8) of 74.91% and a Growth percent (SF-268) of 92.06%. The Growth percent (MDA-MB-231/ATCC) was 77.17%, the Growth percent (SR) was 85.52% and the Growth percent (SK-MEL-28) was 101.79%. It also gave a Growth percent (SF-295) of 92.22%, a Growth percent (NCI-H226) of 93.26% and a Growth percent (HOP-62) of 101.46%. It also gave a Growth percent (SNB-19) of 106.72%, a Growth percent (RPMI-8226) of 94.56% and a Growth percent (ACHN) of 97.31%. It also gave a Growth percent (HL-60(TB)) of 107.06%, a Growth percent (MCF7) of 46.14% and a Growth percent (UACC-62) of 93.23%. For the same compound, the Growth percent (HCT-116) was 65.37%, the Growth percent (PC-3) was 75.02% and the Growth percent (CCRF-CEM) was 92.23%. For the same compound, the Growth percent (OVCAR-3) was 91.85%, the Growth percent (NCI-H460) was 91.29% and the Growth percent (786-0) was 97.69%. For the same compound, the Growth percent (NCI-H522) was 83.95%, the Growth percent (DU-145) was 104.25% and the Growth percent (NCI-H23) was 91.11%. It also gave a Growth percent (T-47D) of 72.43%, a Growth percent (SK-MEL-5) of 97.00% and a Growth percent (OVCAR-5) of 98.06%. For the same compound, the Growth percent (K-562) was 102.86%, the “Growth percent, Delta” value (60 cancer cell lines; delta over panel) was 46.48% and the “Growth percent, Mean” value (60 cancer cell lines; mean over panel) was 92.62%. The “Growth percent, Range” value (60 cancer cell lines; range over panel) was 81.82%, the Growth percent (MALME-3M) was 93.42% and the Growth percent (RXF 393) was 97.03%. The Growth percent (BT-549) was 105.53%.

Source: patent US8927717B1, “Thiochromeno[2,3-c]quinolin-12-one derivatives, preparation method and application thereof” (National Defense Medical Center, priority 2014, dated 2015)
